How the values were obtained:
Format in all cases: cell-based
[1] = molecular target: T1, Protein cereblon/Interleukin-1 receptor-associated kinase 4 (Homo sapiens) (UniProt Q9NWZ3+Q96SW2); assay: Protac activity at IRAK4 in human OCl-LY10 cells assessed as increase in E3 ubiquitin ligase mediated IRAK4 degradation at 0.01 uM incubated for 4 hrs by Western blot analysis relative to control
[2] = molecular target: T1, Protein cereblon/Interleukin-1 receptor-associated kinase 4 (Homo sapiens); assay: Protac activity at IRAK4 in human OCl-LY10 cells assessed as increase in E3 ubiquitin ligase mediated IRAK4 degradation at 0.1 uM incubated for 4 hrs by Western blot analysis relative to control
[3] = molecular target: T1, Protein cereblon/Interleukin-1 receptor-associated kinase 4 (Homo sapiens); assay: Protac activity at IRAK4 in human OCl-LY10 cells assessed as increase in E3 ubiquitin ligase mediated IRAK4 degradation at 1 uM incubated for 4 hrs by Western blot analysis relative to control

T1 sequence (Q96SW2 whole entry, looked up): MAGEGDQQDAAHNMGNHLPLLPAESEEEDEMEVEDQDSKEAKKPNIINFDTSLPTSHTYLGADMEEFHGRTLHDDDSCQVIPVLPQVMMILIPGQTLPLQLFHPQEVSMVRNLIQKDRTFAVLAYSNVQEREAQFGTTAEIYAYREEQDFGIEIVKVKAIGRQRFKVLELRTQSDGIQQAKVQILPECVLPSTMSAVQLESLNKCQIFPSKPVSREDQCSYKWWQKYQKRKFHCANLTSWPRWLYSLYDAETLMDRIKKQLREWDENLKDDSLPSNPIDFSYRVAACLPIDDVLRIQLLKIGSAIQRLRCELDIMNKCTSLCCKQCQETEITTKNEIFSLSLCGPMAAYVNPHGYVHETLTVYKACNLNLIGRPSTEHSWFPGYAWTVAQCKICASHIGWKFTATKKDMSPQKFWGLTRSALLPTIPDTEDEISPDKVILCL
T1 sequence (Q9NWZ3 whole entry, looked up): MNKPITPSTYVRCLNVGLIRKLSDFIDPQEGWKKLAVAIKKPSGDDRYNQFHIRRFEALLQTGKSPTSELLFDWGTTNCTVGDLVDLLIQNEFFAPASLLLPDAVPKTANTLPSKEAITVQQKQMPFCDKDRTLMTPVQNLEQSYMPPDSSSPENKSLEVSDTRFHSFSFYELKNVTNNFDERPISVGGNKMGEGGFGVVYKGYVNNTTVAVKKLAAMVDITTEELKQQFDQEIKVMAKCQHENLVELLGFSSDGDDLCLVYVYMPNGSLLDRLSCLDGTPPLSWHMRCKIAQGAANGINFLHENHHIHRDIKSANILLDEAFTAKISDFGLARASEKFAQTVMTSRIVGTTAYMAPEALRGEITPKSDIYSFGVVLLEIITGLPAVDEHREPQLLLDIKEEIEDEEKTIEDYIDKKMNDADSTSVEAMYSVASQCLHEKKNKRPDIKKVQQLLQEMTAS

Row | SMILES | Activity [1] [%] | Activity [2] [%] | Activity [3] [%]
1 | O=C1CCC(N2C(=O)c3cccc(NC4CCN(CCOCCOCCNC(=O)c5ccc(-n6cc(NC(=O)c7coc(-c8ccnc(NCC(F)(F)F)c8)n7)c(C(F)F)n6)cc5)CC4)c3C2=O)C(=O)N1 (stereo not given) | > 50 | > 50 | > 50
2 | O=C1CCC(n2c(=O)oc3c(CCCOCCOCCNC(=O)c4ccc(-n5cc(NC(=O)c6coc(-c7ccnc(NCC8CC8)c7)n6)c(C(F)F)n5)cc4)cccc32)C(=O)N1 (stereo not given) | > 20 | > 50 | > 50
3 | CN(CCOCCOCCCc1ccc2c(c1)C(=O)N(C1CCC(=O)NC1=O)C2=O)C(=O)c1ccc(-n2cc(NC(=O)c3coc(-c4ccnc(NCC5CC5)c4)n3)c(C(N)=O)n2)cc1 (stereo not given) | > 50 | > 50 | > 50
4 | CN(CCOCCOCCCc1ccc2c(c1)C(=O)N(C1CCC(=O)NC1=O)C2=O)Cc1ccc(-n2cc(NC(=O)c3coc(-c4ccncc4)n3)c(C(N)=O)n2)cc1 (stereo not given) | > 20 | > 50 | > 50
5 | NC(=O)c1nn(-c2ccc(C(=O)NCC3CCCCN3CCOCCNc3cccc4c3C(=O)N(C3CCC(=O)NC3=O)C4=O)cc2)cc1NC(=O)c1coc(-c2ccnc(NCC(F)(F)F)c2)n1 (stereo not given) | > 50 | > 50 | > 50
6 | NCc1nn(-c2ccc(C(=O)NCCOCCOCCNc3cccc4c3C(=O)N(C3CCC(=O)NC3=O)C4=O)cc2)cc1NC(=O)c1coc(-c2ccnc(NCC(F)(F)F)c2)n1 (stereo not given) | > 50 | > 50 | > 50

Other lines, results leading:

Row | Activity [1] [%] | Activity [2] [%] | Activity [3] [%] | SMILES
7 | > 20 | > 50 | > 50 | CN(CCOCCOCCCc1ccc2c(c1)C(=O)N(C1CCC(=O)NC1=O)C2=O)Cc1ccc(-n2cc(NC(=O)c3coc(-c4ccnc(NCC5CC5)c4)n3)c(C(N)=O)n2)cc1 (stereo not given)
8 | > 50 | > 50 | > 50 | NC(=O)c1nn(-c2ccc(CNCC3CN(CCOCCNc4cccc5c4C(=O)N(C4CCC(=O)NC4=O)C5=O)CCO3)cc2)cc1NC(=O)c1coc(-c2ccnc(NCC(F)(F)F)c2)n1 (stereo not given)
9 | > 20 | > 50 | > 50 | CN(CCOCCCc1cccc2c1C(=O)N(C1CCC(=O)NC1=O)C2=O)Cc1ccc(-n2cc(NC(=O)c3coc(-c4ccnc(NCC5CC5)c4)n3)c(C(N)=O)n2)cc1 (stereo not given)
10 | > 50 | > 50 | > 50 | O=C1CCC(N2C(=O)c3cccc(NCCNCCOCCNC(=O)c4ccc(-n5cc(NC(=O)c6coc(-c7ccnc(NCC8CC8)c7)n6)c(C(F)(F)F)n5)cc4)c3C2=O)C(=O)N1 (stereo not given)
